Active and inactive are the calls of the source. Rule as the data show it: actives have a measured IC50 and inactives only a lower limit.
Target: Envelope glycoprotein gp160 (Human immunodeficiency virus 1, UniProt Q6QLK5)
Assay: inhibitors of HIV fusion peptide binding, primary screen, biochemical, uHTS, fluorescence dequenching (AID 1986)

Sequence of Envelope glycoprotein gp160 (Q6QLK5 whole entry, the tested form may be a part): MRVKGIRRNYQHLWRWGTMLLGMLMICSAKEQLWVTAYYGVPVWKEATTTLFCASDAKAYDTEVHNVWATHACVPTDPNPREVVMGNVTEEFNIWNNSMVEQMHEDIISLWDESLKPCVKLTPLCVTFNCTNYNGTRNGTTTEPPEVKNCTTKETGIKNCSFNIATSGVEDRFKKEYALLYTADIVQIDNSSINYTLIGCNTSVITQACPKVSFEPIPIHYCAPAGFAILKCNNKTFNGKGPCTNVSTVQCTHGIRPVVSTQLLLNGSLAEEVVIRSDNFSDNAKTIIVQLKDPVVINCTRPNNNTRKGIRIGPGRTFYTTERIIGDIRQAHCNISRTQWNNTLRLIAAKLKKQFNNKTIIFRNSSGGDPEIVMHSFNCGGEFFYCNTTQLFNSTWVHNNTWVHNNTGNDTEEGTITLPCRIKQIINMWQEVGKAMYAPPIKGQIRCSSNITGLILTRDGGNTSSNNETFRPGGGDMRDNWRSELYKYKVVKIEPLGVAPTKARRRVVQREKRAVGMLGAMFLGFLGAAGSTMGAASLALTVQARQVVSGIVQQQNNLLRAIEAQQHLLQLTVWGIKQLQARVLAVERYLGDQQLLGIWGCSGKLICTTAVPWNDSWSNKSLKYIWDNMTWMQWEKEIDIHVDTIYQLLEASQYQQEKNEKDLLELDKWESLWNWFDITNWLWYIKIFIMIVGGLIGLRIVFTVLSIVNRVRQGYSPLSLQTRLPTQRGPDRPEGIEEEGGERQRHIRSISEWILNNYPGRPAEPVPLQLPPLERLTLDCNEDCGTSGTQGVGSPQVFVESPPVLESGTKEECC

**Q.** CC(C)c1ccc(OCC(=O)Nc2cccc(C(=O)Nc3ccccc3C(=O)O)c2)cc1 was tested. Which IC50 did it give?
**A.** 16.9 µM (active)

**Q.** For O=C(O)c1ccc(Cl)c(S(=O)(=O)Nc2ccccc2C(=O)Nc2ccc(Cl)cc2)c1, which IC50 is on record?
**A.** 17.9 µM (active)

**Q.** For Cc1cccc(OCC(=O)Nc2ccc(C(=O)Nc3ccccc3C(=O)O)cc2)c1C, which IC50 is on record?
**A.** 28.3 µM (active)

**Q.** For COc1cc(/C=C2\SC(=O)N(Cc3ccc(F)cc3)C2=O)cc([N+](=O)[O-])c1O, which IC50 is on record?
**A.** 19.7 µM (active)

**Q.** Which IC50 does the source give for C/C(=N\Nc1ccc(C(=O)O)cc1)c1ccc2c(c1)Nc1ccccc1S2 here?
**A.** 15.4 µM (active)
